Assay results: patent US10925885B2, “Thyromimetics for the treatment of fatty liver diseases” (Metabasis Therapeutics, Inc., priority 2005, dated 2021)
“Also recorded” adds a separate entry of the source.

How the values were obtained:
liver triglycerides [1] = experiment: Liver triglycerides, chronic exposure in normal rats; assay type: in vivo, rats (Sprague-Dawley); settings: 1 mg/kg/day continuous infusion
Excerpt: The purpose of these studies was to compare the difference in efficacy to clear liver triglyceride content between T3 and various T3 mimetics that are carboxylic acids and T3 mimetics that are phosphonic acids. In one example, T3 and Compounds 7 and 17, which differ only in that for Compound 7, the X moiety of Formula II is —P(O)OH2 and for Compound 17, X is —C(O)OH, were compared. In the same example TRIAC and Compound 6, which differ only in that for Compound 6, X is —P(O)OH2 and for TRIAC, X is —C(O)OH, were compared. Efficacy was measured by analyzing total liver triglycerides.
(§1) Methods: Normal rats (Sprague-Dawley) were maintained on a standard diet. Compounds 7, 17, 6, TRIAC or T3 were administered by continuous infusion using an osmotic pump (Alzet; subcutaneous implant) at a dose of 1 mg/kg/day. The compounds were dissolved in 0.1N NaOH solution and the pH adjusted to 7.4-8.0. The compounds were brought up to an appropriate volume using PBS and BSA to maintain solubility within the pump. The compounds were chemically stable in the excipient at 37° C. for 7 days. Body weights were measured and the change from the starting body weight was calculated. The 4.5% reported for the vehicle animals represent a 4.5% increase in body weight over the course of the experiment.
(§2) Sections of liver were removed and frozen. Liver triglycerides were analyzed following lipid extraction by the Bligh Dyer method (Bligh and Dyer, Can. J. Med. Sci. 37(8):911-7 (1959), incorporated herein by reference). Total triglycerides were analyzed in the liver extracts by an enzymatic assay (Thermo Electron Corporation). Total lipid was normalized to initial liver weight and triglyceride content was normalized to liver weight mGPDH activity was analyzed in isolated mitochondria using 2-(4-iodophenyl)-3-(4-nitrophenyl)-5-phenyl tetrazolium chloride as the terminal electron acceptor (Gardner R S, Analytical Biochemistry 59:272 (1974)). Commercially available GPDH was used in each assay as a standard (Sigma, St. Louis, Mo.).

[2] = Body weight change, chronic exposure in normal rats; assay type: in vivo, rats (Sprague-Dawley); settings: 1 mg/kg/day continuous infusion
Experimental: as §1

mGPDH = experiment: Liver mGPDH activity in isolated mitochondria, normal rats; assay type: in vivo; settings: normal Sprague-Dawley rats, 1 mg/kg/day continuous infusion, subcutaneous osmotic pump
Experimental: as §1, §2

liver triglycerides [3] = experiment: Liver triglycerides, chronic exposure in ob/ob mice; assay type: in vivo; settings: for Effect on liver (hepatic) triglyceride content, in words: cis-13-1 oral 3, 10, 30 mg/kg/d, T3 100 nmole/kg/d s.c.
Experimental: as §2
The purpose of these studies was to compare the difference in efficacy to clear liver triglyceride content between Compound cis-13-1 and T3 in ob/ob mice.
(§3) Methods: ob/ob mice were maintained on a standard diet. Compound cis-13-1 was administered at doses of 3, 10 and 30 mg/kg/d orally in a CMC suspension. T3, 100 nmole/kg/d, was administered as an aqueous solution subcutaneously. Liver triglycerides were analyzed as described in example A. Epididymal fat pads were removed and weighed. Clinical chemistry analysis was performed by LabCorp (San Diego, Calif.).

[4] = Epididymal fat pad weight in ob/ob mice; assay type: in vivo; settings: for Effect on epididymal fat pad (EFP) weight, in words: cis-13-1 oral, T3 100 nmole/kg/d s.c.
Experimental: as §3

hepatic steatosis [5] = experiment: Hepatic steatosis measured chemically and histologically in ob/ob mice; assay type: in vivo; settings: oral administration of cis-13-1
Experimental: as §3

[6] = tested on: thyroid-responsive genes in the liver; settings: T3-treated vs hypothyroid mice; cited from earlier work
ALT = ALT levels (clinical chemistry) in ob/ob mice; assay type: in vivo; settings: 9 weeks of treatment, from 634 IU/L in the vehicle treated group
Experimental: as §3

hepatic steatosis [7] = experiment: Liver steatosis (H&E sections) in ZDF rats; assay type: in vivo, Zucker diabetic fatty (ZDF) rats; settings: oral, CMC suspension
Experimental: (§4) Methods: ZDF rats were maintained on a standard diet (5008). Compounds cis-13-1 or 18 were administered orally at the indicated doses using a CMC suspension. Liver steatosis was analyzed visually following H&E staining of paraffin embedded liver sections. TSH was measured using a rodent specific kit (Amersham Biosciences). At the end of the experiment, the left ventricle was cannulated with a high fidelity catheter-tip transducer (Millar) via the right carotid artery. Left ventricle pressure, its first derivative (LV dP/dt), lead I ECG, and heart rate triggered off the ECG waveform, were recorded.

TSH [8] = experiment: TSH in ZDF rats; assay type: in vivo, Zucker diabetic fatty (ZDF) rats; settings: 4 weeks of treatment
Experimental: as §4

[9] = Heart rate and cardiovascular parameters in ZDF rats; assay type: in vivo, Zucker diabetic fatty (ZDF) rats; settings: end of experiment
Experimental: as §4

hepatic steatosis [10] = experiment: Liver steatosis (H&E sections) in DIO mice; assay type: in vivo, diet induced obesity (DIO) mice; settings: DIO mice (60% Kcal from fat diet); 30 mg/kg/d orally, CMC suspension, 10 weeks
Experimental: (§5) The purpose of these studies was to compare the ability of Compound cis-13-1 to clear liver steatosis in diet induced obesity (DIO) mice. Methods: […] mice were maintained on a 60% Kcal from fat diet. Compound cis-13-1 was administered at doses of 30 mg/kg/d orally in a CMC suspension for 10 weeks. Liver steatosis was analyzed visually following H&E staining of paraffin embedded liver sections. TSH was measured using a rodent specific kit (Amersham Biosciences). Heart rates were measured using a Lead I ECG with the heart rate calculated from the ECG waveform.

mitochondria = experiment: Ultrastructure of mitochondria in DIO mice; assay type: in vivo, diet induced obesity (DIO) mice; settings: 30 mg/kg/d orally, 10 weeks
Experimental: as §5, with “Methods:” for “The purpose of these studies was to compare the ability of Compound cis-13-1 to clear liver steatosis in diet induced obesity (DIO) mice. Methods:”

TSH [11] = experiment: TSH in DIO mice; assay type: in vivo, diet induced obesity (DIO) mice; settings: 10 weeks of treatment
Experimental: as §5, with “Methods:” for “The purpose of these studies was to compare the ability of Compound cis-13-1 to clear liver steatosis in diet induced obesity (DIO) mice. Methods:”

[12] = Heart rate (Lead I ECG) in DIO mice; assay type: in vivo, diet induced obesity (DIO) mice; settings: 30 mg/kg/d orally, 10 weeks
Experimental: as §5, with “Methods:” for “The purpose of these studies was to compare the ability of Compound cis-13-1 to clear liver steatosis in diet induced obesity (DIO) mice. Methods:”

CPT-1 = experiment: Liver gene expression (real-time PCR) in normal mice; assay type: in vivo; settings: normal C57Bl6 mice; 30 mg/kg/d orally, CMC suspension, 1 week; liver mRNA
Experimental: The purpose of these studies was to compare the ability of Compound cis-13-1 to change liver gene expression.
Methods: C57Bl6 mice were maintained on a normal rodent diet. Compound cis-13-1 was administered at doses of 30 mg/kg/d orally in a CMC suspension for 1 week. Changes in levels of mRNA for liver and heart genes are analyzed using reverse transcriptase followed by real-time PCR analysis. The analysis is performed using an iCycler instrument (Biorad) and appropriate primers by means of standard methodology (e.g., Schwab D A et al. Life Sciences 66:1683-94(2000)). The amounts of mRNA are normalized to an internal control, typically, cyclophilin.

[13] = normal Sprague-Dawley rats, subcutaneous osmotic pump, one week
[14] = T3 100 nmole/kg/d subcutaneously
[15] = 3 mg/kg/d orally, CMC suspension
[16] = 10 mg/kg/d orally, CMC suspension
[17] = 30 mg/kg/d orally, CMC suspension

Molecule: 3,3′,5′-triiodothyronine [Compound T3]
- Triglycerides (mg/g liver) (liver triglycerides [1]; [13]): 3.6 ± 0.6 mg/g liver
- Effect on liver (hepatic) triglyceride content, in words (liver triglycerides [1]; normal rats, systemic administration, 1 mg/kg/day): did not demonstrate a decrease in hepatic triglyceride content; also recorded: did not significantly decrease liver triglyceride content
- Body Weight (% change from start) [2, 13]: −8.2 ± 1.5 % change from start
- Effect on body weight, in words ([2]; normal rats, 1 mg/kg/day): decreased body weight; also recorded: loss of body weight
- Liver mGPDH activity (% vehicle) (mGPDH): 406 ± 54 % vehicle
- Liver Trigs (liver triglycerides [3]; [14]): 86 ± 5 mg/g
- Effect on liver (hepatic) triglyceride content, in words (liver triglycerides [3]): did not significantly decrease liver triglyceride content
- EFP weight [4, 14]: 2.0 ± 0.1 g
- Effect on epididymal fat pad (EFP) weight, in words [4]: significantly decreased EFP weight; also recorded: significantly decreased epididymal fat pad weight
- Effect on hepatic steatosis measured chemically and histologically, in words (hepatic steatosis [5]): no significant effect on hepatic steatosis
- Fold, AM2 receptor [6]: 0.3 Fold
- Fold, Actin, α cardiac [6]: 0.3 Fold
- Fold, Actin, γ-enteric smooth muscle [6]: 0.3 Fold
- Fold, Arylsulfatase A [6]: 0.3 Fold
- Fold, B61 [6]: 2.3 Fold
- Fold, Bcl-3 [6]: 2.5 Fold
- Fold, C11 protein [6]: 0.3 Fold
- Fold, Capping protein a-subunit [6]: 0.3 Fold
- Fold, Carbonyl reductase (Cbr1) [6]: 3.3 Fold
- Fold, Chromodomain-helicase-DNA binding protein CHD-1 [6]: 0.4 Fold
- Fold, Cyp4a-10 [6]: 0.3 Fold
- Fold, Cytoskeletal β-actin [6]: 0.3 Fold
- Fold, EST [6]: 0.4 Fold
- Fold, FK506-binding protein (FKBP23) [6]: 0.2 Fold
- Fold, FK506-binding protein (FKBP65) [6]: 0.3 Fold
- Fold, Fatty acid transport protein (FATP) [6]: 1.8 Fold
- Fold, Glucose regulated protein 78 [6]: 0.3 Fold
- Fold, Glucose-6-phosphatase [6]: 3.8 Fold
- Fold, Glycerophosphate dehydrogenase [6]: 0.3 Fold
- Fold, H-2 class I histocompatibility antigen [6]: 0.3 Fold
- Fold, Inhibitory G protein of adenylate cyclase, α chain [6]: 0.3 Fold
- Fold, Insulin-like growth factor binding protein 1 precursor [6]: 3.0 Fold
- Fold, Kinesin-like protein (KipIp) [6]: 2.0 Fold
- Fold, Lamin A [6]: 0.3 Fold
- Fold, Lupus la protein homolog [6]: 0.3 Fold
- Fold, Major urinary protein 2 precursor [6]: 3.9 Fold
- Fold, Membrane-type matrix metalloproteinase [6]: 0.2 Fold
- Fold, Mitochondrial genome [6]: 0.4 Fold
- Fold, Murine vik5variant in the kinase [6]: 0.1 Fold
- Fold, Myosin binding protein H (MyBP-H) [6]: 2.2 Fold
- Fold, NfiB1-protein (exon 1-12) [6]: 0.3 Fold
- Fold, Nuclear-encoded mitochondrial acyltransferase [6]: 0.2 Fold
- Fold, PHAS-II [6]: 0.3 Fold
- Fold, Protein kinase C inhibitor (mPKCl) [6]: 2.1 Fold
- Fold, Protein kinase C, Θ type [6]: 0.3 Fold
- Fold, Protein kinase ζ [6]: 0.5 Fold
- Fold, Putative ATP-dependent RNA helicase PL10 [6]: 0.3 Fold
- Fold, Putative SH3-containing protein SH3P12 [6]: 0.3 Fold
- Fold, Putative transcription factor of the insulin gene [6]: 0.3 Fold
- Fold, Rho-associated, coiled-coil forming protein kinase p160 [6]: 0.2 Fold
- Fold, Serine/threonine kinase (Akt2) [6]: 0.3 Fold
- Fold, Skeletal muscle actin [6]: 0.3 Fold
- Fold, Spot 14 gene [6]: 8.8 Fold
- Fold, T-complex protein 1, d subunit [6]: 0.3 Fold
- Fold, TGN38B [6]: 0.3 Fold
- Fold, Terminal deoxynucleotidyltransferase [6]: 0.3 Fold
- Fold, Thymic stromal stimulating factor [6]: 0.3 Fold
- Fold, Ubiquitin-activating enzyme E1 X [6]: 0.3 Fold
- Fold, Virus-like (VL30) retrotransposon BVL-1 [6]: 0.3 Fold
- Fold, ece1 (endothelin-converting enzyme) [6]: 0.2 Fold
- Fold, α-2,3-Sialyltransferase [6]: 0.3 Fold
- Fold, α-Adaptin [6]: 0.3 Fold
- Fold, α-Globin [6]: 2.7 Fold
- Fold, β-2 Adrenergic receptor [6]: 3.4 Fold
- Fold, β-Galactoside α 2,6-sialyltransferase [6]: 0.3 Fold
- Fold, β-Globin [6]: 2.3 Fold

Molecule: Cc1cc(OC[P@@]2(=O)OCC[C@@H](c3cccc(Cl)c3)O2)cc(C)c1Cc1ccc(O)c(C(C)C)c1 [Compound cis-13-1]
- Liver Trigs (liver triglycerides [3]; [15]): 87 ± 6 mg/g
- Liver Trigs (liver triglycerides [3]; [16]): 66 ± 10 mg/g
- Liver Trigs (liver triglycerides [3]; [17]): 59 ± 6 mg/g
- Effect on liver (hepatic) triglyceride content, in words (liver triglycerides [3]): decreased hepatic triglyceride content at 10 and 30 mg/kg/d
- EFP weight [4, 15]: 4.4 ± 0.1 g
- EFP weight [4, 16]: 4.7 ± 0.1 g
- EFP weight [4, 17]: 4.4 ± 0.1 g
- Effect on epididymal fat pad (EFP) weight, in words [4]: did not decrease epididymal fat pad (EFP) weight; also recorded: no effect on epididymal fat pad weight
- Decrease in ALT levels (ALT): > 50%
- Effect on hepatic steatosis measured chemically and histologically, in words (hepatic steatosis [5]): decreased hepatic steatosis
- Effect on hepatic steatosis (visual, H&E), in words (hepatic steatosis [7]): visually decreased hepatic steatosis compared to control
- Effect on TSH, in words (TSH [8]): No significant decreases in TSH
- Heart rates and other cardiovascular parameters, change from vehicle, in words [9]: no significant changes from vehicle in any parameter
- Effect on hepatic steatosis (visual, H&E), in words (hepatic steatosis [10]): decreased hepatic steatosis
- Ultrastructure of mitochondria, in words (mitochondria): no abnormalities in the ultrastructure of mitochondria
- Effect on TSH, in words (TSH [11]): No significant decreases in TSH
- Change in heart rate, in words [12]: no significant change in heart rate
- Increase in CPT-1 expression (CPT-1): 3.5 fold
